According to patent publication US20240385087A1, “METHOD FOR STAINING MITOCHONDRIA” (TOCRIS COOKSON LIMITED, priority 2021, published 2024):
Entries after “also recorded” stand apart in the source; their conditions may differ.

Columns and labels:
Assay type in all cases: cell-based
HeLa cells = experiment: Optimization of stain concentration for imaging HeLa cells; conditions: 50 nM, 60 mins, no washout, same laser power/settings
Description: HeLa cells were incubated with the comparator or COMPOUND 1 for 60 mins at indicated doses and imaged at the same laser power/settings. NOTE: no washout step to remove unbound comparator was performed (manufacturer recommends this) to enable direct comparison with COMPOUND 1. Some toxicity is observed with 100 nM of comparator.
(§1) Mitochondrial stains were diluted to working concentrations from 10 mM DMSO stock solutions into DMEM containing 10% FCS and 25 mM HEPES. Solutions were incubated with HeLa cells at 37° C. in a humidified 5% CO2 incubator for the indicated period of time prior to imaging, typically without a washout step (though a washout step can be performed). A Nikon A1R TiE confocal laser scanning microscope equipped with environmental chamber (37° C.) was used for live-cell imaging, employing 561 nm and 640 nm diode laser lines, a Nikon A1R Plan APO VC 60x Oil lens (NA 1.4), pinhole at 1AU. The images were acquired using NIS Elements software and processed using ImageJ.

[1] = test system: mitochondria in HeLa cells; experiment: Mitochondrial localisation and membrane-potential dependence in HeLa cells (oligomycin / CCCP treatment, confocal imaging)
Description: as §1

[2] = test system: mitochondria in HeLa cells; experiment: Time-course live-cell confocal imaging of stained HeLa cells (photostability, localisation, phototoxicity); conditions: 50 nM for 60 mins; for (photo)-toxicity during prolonged imaging / localisation at mitochondria over time / photostability / signal over time: live imaging every 5 seconds for 240 frames
Description: Within this time frame, COMPOUND 1 intensity drops by ˜25% during the imaging period compared to the comparator which drops by 65%.
Data from two samples of COMPOUND 3,measured at different timepoints is overlaid in the graph (right).
as §1

| SMILES | imaging result (HeLa cells) | effect of de-polarizing the mitochondrial membrane with CCCP on stain ([1]; HeLa cells, 50 nM stain for 60 mins, then CCCP 10 μM up to 60 minutes) | effect of hyper-polarizing the mitochondrial membrane with oligomycin on stain ([1]; HeLa cells, 50 nM stain for 60 mins, then Oligomycin 5 μg/mL up to 60 minutes) | localisation of stain ([1]; mitochondrial stain, due to charge potential across the mitochondrial membrane) | (photo)-toxicity during prolonged imaging [2] | localisation at mitochondria over time [2] | drop of normalized intensity during the imaging period ([2]; live imaging every 5 seconds for 240 frames (20 minutes), 100% = maximum intensity peak) | photostability / signal over time [2] |
| --- | --- | --- | --- | --- | --- | --- | --- | --- |
| C[Si]1(C)C2=CC(=[N+]3CCC3)C=CC2=C(c2ccccc2)c2ccc(N3CCC3)cc21 [COMPOUND 1, 1-(7-(azetidin-1-yl)-5,5-dimethyl-10-phenyldibenzo[b,e]silin-3 (5H)-ylidene)azetidin-1-ium chloride] | excellent results | dispersion | accumulation | localizes specifically to the mitochondria | no apparent toxicity | remains clearly localized at the mitochondria; also recorded: appears to mark the mitochondria more clearly than COMPOUND 2 over time | ~25% | – |
| Cc1ccccc1-c1c2ccc(=[N+]3CCC3)cc-2oc2cc(N3CCC3)ccc12 [COMPOUND 3, 1-(6-(azetidin-1-yl)-9-(o-tolyl)-3H-xanthen-3-ylidene)azetidin-1-ium] | – | – | – | – | – | higher non-specific cytoplasmic background (and lower mitochondrial labelling) | – | retention of signal during the first 10 mins of imaging, but then the signal rapidly drops |
| c1ccc(-c2c3ccc(=[N+]4CCC4)cc-3oc3cc(N4CCC4)ccc23)cc1 [COMPOUND 4, 1-(6-(azetidin-1-yl)-9-phenyl-3H-xanthen-3-ylidene)azetidin-1-ium chloride] | – | – | – | – | no observable phototoxicity effects | remain faithfully localized to mitochondria over the entire imaging period | – | higher signal retention over time than COMPOUND 3 |
